Measurements reported in patent US11725000B2, “Apoptosis inhibitors” (National Institute of Biological Sciences, Beijing, priority 2017, dated 2023).
pEC50: −log10 of the molar value. Where two headings read alike, the source gives them in different places.

System: U2OS_Bim cells
Assay: Apoptosis inhibition assay (Bim-induced apoptosis, cell viability by ATP level)
Assay type: cell-based
Conditions: U2OS_Bim cells, numbering of Tables 4a/4b, read-out: EC50
How it was run: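 Apoptosis was triggered by doxycycline (0.1 μg/mL) induction of Bim, one hour after compound addition to U2OS_Bim cells. Survival was measured after 24 h from cellular ATP (CellTiter-Glo), relative to DMSO, with zVAD at 20 μM as rescue control. Data are duplicate means, some estimated from preliminary results.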

[1] = estimated based on preliminary results

SMILES | pEC50 (means of duplicates) | pEC50 [1]
COc1ccc(Cn2cc(-c3cc(C(F)F)nc([S+](C)[O-])n3)ccc2=O)cc1C(F)(F)F (centres unmarked) [Compound 170, 5-(6-(difluoromethyl)-2-(methylsulfinyl)pyrimidin-4-yl)-1-(4-methoxy-3-(trifluoromethyl)benzyl)pyridin-2 (1H)-one] | 6.00 to 9.00 | –
COc1cc(Cn2cc(-c3cc(C(F)F)nc(SC)n3)ccc2=O)cc(F)c1OC [Compound 171, 5-(6-(difluoromethyl)-2-(methylthio)pyrimidin-4-yl)-1-(3-fluoro-4,5-dimethoxybenzyl)pyridin-2 (1H)-one] | 6.00 to 9.00 | –
COc1cccc(CS(=O)(=O)c2nc(-c3ccc(=O)n(Cc4ccc(OC)c(OC)c4)c3)cc(C(F)F)n2)c1 [Compound 172, 5-(6-(difluoromethyl)-2-((3-methoxybenzyl)sulfonyl)pyrimidin-4-yl)-1-(3,4-dimethoxybenzyl)pyridin-2 (1H)-one] | 6.00 to 9.00 | –
COc1cccc(C[S+]([O-])c2nc(-c3ccc(=O)n(Cc4ccc(OC)c(OC)c4)c3)cc(C(F)F)n2)c1 (centres unmarked) [Compound 173, 5-(6-(difluoromethyl)-2-((3-methoxybenzyl)sulfinyl)pyrimidin-4-yl)-1-(3,4-dimethoxybenzyl)pyridin-2 (1H)-one] | 5.00 to 6.00 | –
COc1cccc(S(=O)(=O)c2nc(-c3ccc(=O)n(Cc4ccc(OC)c(OC)c4)c3)cc(C(F)F)n2)c1 [Compound 174, 5-(6-(difluoromethyl)-2-((3-methoxyphenyl)sulfonyl)pyrimidin-4-yl)-1-(3,4-dimethoxybenzyl)pyridin-2 (1H)-one] | 6.00 to 9.00 | –
CNC(=O)CCCS(=O)(=O)c1nc(-c2ccc(=O)n(Cc3ccc(OC)c(OC)c3)c2)cc(C(F)F)n1 [Compound 176, 4-((4-(difluoromethyl)-6-(1-(3,4-dimethoxybenzyl)-6-oxo-1,6-dihydropyridin-3-yl)pyrimidin-2-yl)sulfonyl)-N-methylbutanamide] | 5.00 to 6.00 | –
CNC(=O)CCC[S+]([O-])c1nc(-c2ccc(=O)n(Cc3ccc(OC)c(OC)c3)c2)cc(C(F)F)n1 (centres unmarked) [Compound 177, 4-((4-(difluoromethyl)-6-(1-(3,4-dimethoxybenzyl)-6-oxo-1,6-dihydropyridin-3-yl)pyrimidin-2-yl)sulfinyl)-N-methylbutanamide] | > 4.00 | –
CNS(=O)(=O)CCCS(=O)(=O)c1nc(-c2ccc(=O)n(Cc3ccc(OC)c(OC)c3)c2)cc(C(F)F)n1 [Compound 178, 3-((4-(difluoromethyl)-6-(1-(3,4-dimethoxybenzyl)-6-oxo-1,6-dihydropyridin-3-yl)pyrimidin-2-yl)sulfonyl)-N-methylpropane-1-sulfonamide] | 6.00 to 9.00 | –
CNS(=O)(=O)CCC[S+]([O-])c1nc(-c2ccc(=O)n(Cc3ccc(OC)c(OC)c3)c2)cc(C(F)F)n1 (centres unmarked) [Compound 179, 3-((4-(difluoromethyl)-6-(1-(3,4-dimethoxybenzyl)-6-oxo-1,6-dihydropyridin-3-yl)pyrimidin-2-yl)sulfinyl)-N-methylpropane-1-sulfonamide] | > 4.00 | –
COc1ccc(Cn2cc(-c3cc(C(F)F)nc(S(=O)(=O)c4cccc(N)c4)n3)ccc2=O)cc1OC [Compound 180, 5-(2-((3-aminophenyl)sulfonyl)-6-(difluoromethyl)pyrimidin-4-yl)-1-(3,4-dimethoxybenzyl)pyridin-2 (1H)-one] | 6.00 to 9.00 | –
COc1ccc(Cn2cc(-c3cc(C(F)F)nc(S(=O)(=O)c4cccc(NC(C)=O)c4)n3)ccc2=O)cc1OC [Compound 182, N-(3-((4-(difluoromethyl)-6-(1-(3,4-dimethoxybenzyl)-6-oxo-1,6-dihydropyridin-3-yl)pyrimidin-2-yl)sulfonyl)phenyl)acetamide] | 6.00 to 9.00 | –
CCCCCCNC(=O)CCCS(=O)(=O)c1nc(-c2ccc(=O)n(Cc3ccc(OC)c(OC)c3)c2)cc(C(F)F)n1 [Compound 183, 4-((4-(difluoromethyl)-6-(1-(3,4-dimethoxybenzyl)-6-oxo-1,6-dihydropyridin-3-yl)pyrimidin-2-yl)sulfonyl)-N-hexylbutanamide] | 6.00 to 9.00 | –
CCCCCCNC(=O)CCC[S+]([O-])c1nc(-c2ccc(=O)n(Cc3ccc(OC)c(OC)c3)c2)cc(C(F)F)n1 (centres unmarked) [Compound 184, 4-((4-(difluoromethyl)-6-(1-(3,4-dimethoxybenzyl)-6-oxo-1,6-dihydropyridin-3-yl)pyrimidin-2-yl)sulfinyl)-N-hexylbutanamide] | 6.00 to 9.00 | –
COc1ccc(Cn2cc(-c3cc(C(F)F)nc(S(=O)(=O)CCCNC(C)=O)n3)ccc2=O)cc1OC [Compound 185, N-(3-((4-(difluoromethyl)-6-(1-(3,4-dimethoxybenzyl)-6-oxo-1,6-dihydropyridin-3-yl)pyrimidin-2-yl)sulfonyl)propyl)acetamide] | 5.00 to 6.00 | –
COc1ccc(Cn2cc(-c3cc(C(F)F)nc(S(=O)(=O)CCCS(=O)(=O)c4nc(-c5ccc(=O)n(Cc6ccc(OC)c(OC)c6)c5)cc(C(F)F)n4)n3)ccc2=O)cc1OC [Compound 186, 5,5′-(2,2′-(propane-1,3-diyldisulfonyl)bis(6-(difluoromethyl)pyrimidine-4,2-diyl))bis(1-(3,4-dimethoxybenzyl)pyridin-2 (1H)-one)] | 6.00 to 9.00 | –
COc1ccc(Cn2cc(-c3cc(C(F)(F)F)nc(S(=O)(=O)Cc4cccnc4)n3)ccc2=O)cc1OC [Compound 188] | – | > 5.00
COc1ccc(Cn2cc(-c3cc(C(F)(F)F)nc(S(=O)(=O)Cc4ccccn4)n3)ccc2=O)cc1OC [Compound 189] | – | > 5.00
COc1ccc(Cn2cc(-c3cc(C(F)(F)F)nc(S(=O)(=O)Cc4ccncc4)n3)ccc2=O)cc1OC [Compound 190] | – | > 5.00
COc1ccc(Cn2cc(-c3cc(C(F)(F)F)nc([S+]([O-])Cn4ncnn4)n3)ccc2=O)cc1OC (centres unmarked) [Compound 193] | – | > 5.00
COc1ccc(Cn2cc(-c3cc(C(F)(F)F)nc(S(=O)(=O)CN4CCCC4)n3)ccc2=O)cc1OC [Compound 194] | – | > 5.00
COc1ccc(Cn2cc(-c3cc(C(F)(F)F)nc(S(=O)(=O)Cn4ncnn4)n3)ccc2=O)cc1OC [Compound 195] | – | > 5.00
COc1ccc(Cn2cc(-c3cc(C(F)(F)F)nc(S(=O)(=O)CN4CCCCC4)n3)ccc2=O)cc1OC [Compound 196] | – | > 5.00
COc1ccc(Cn2cc(-c3cc(C(F)(F)F)nc([S+]([O-])CN4CCCCC4)n3)ccc2=O)cc1OC (centres unmarked) [Compound 197] | – | > 5.00
COc1ccc(Cn2cc(-c3cc(C(F)(F)F)nc([S+]([O-])CN4CCCC4)n3)ccc2=O)cc1OC (centres unmarked) [Compound 198] | – | > 5.00
COc1ccc(Cn2cc(-c3cc(C(F)(F)F)nc(S(=O)(=O)CN(C)C)n3)ccc2=O)cc1OC [Compound 199] | – | > 5.00
COc1ccc(Cn2cc(-c3cc(F)nc(S(C)(=O)=O)n3)ccc2=O)cc1OC [Compound 201, 1-(3,4-dimethoxybenzyl)-5-(6-fluoro-2-(methylsulfonyl)pyrimidin-4-yl)pyridin-2 (1H)-one] | – | > 5.00

Further lines, results first:

pEC50 (means of duplicates) | pEC50 [1] | SMILES
6.00 to 9.00 | – | COc1cccc([S+]([O-])c2nc(-c3ccc(=O)n(Cc4ccc(OC)c(OC)c4)c3)cc(C(F)F)n2)c1 (centres unmarked) [Compound 175, 5-(6-(difluoromethyl)-2-((3-methoxyphenyl)sulfinyl)pyrimidin-4-yl)-1-(3,4-dimethoxybenzyl)pyridin-2 (1H)-one]
6.00 to 9.00 | – | COc1ccc(Cn2cc(-c3cc(C(F)F)nc([S+]([O-])c4cccc(N)c4)n3)ccc2=O)cc1OC (centres unmarked) [Compound 181, 5-(2-((3-aminophenyl)sulfinyl)-6-(difluoromethyl)pyrimidin-4-yl)-1-(3,4-dimethoxybenzyl)pyridin-2 (1H)-one]
– | > 5.00 | COc1ccc(Cn2cc(-c3cc(C(F)(F)F)nc([S+]([O-])Cc4ccccn4)n3)ccc2=O)cc1OC (centres unmarked) [Compound 187]
– | > 5.00 | COc1ccc(Cn2cc(-c3cc(C(F)(F)F)nc([S+]([O-])Cc4ccncc4)n3)ccc2=O)cc1OC (centres unmarked) [Compound 191]
– | > 5.00 | COc1ccc(Cn2cc(-c3cc(C(F)(F)F)nc([S+]([O-])Cc4cccnc4)n3)ccc2=O)cc1OC (centres unmarked) [Compound 192]
– | > 5.00 | COc1ccc(Cn2cc(-c3cc(C(F)(F)F)nc([S+]([O-])CN(C)C)n3)ccc2=O)cc1OC (centres unmarked) [Compound 200]
– | > 5.00 | COc1ccc(Cn2cc(-c3cc(C(F)F)nc([S+](C)[O-])n3)ccc2=O)cc1OC (centres unmarked) [Compound 202, 5-(6-(difluoromethyl)-2-(methylsulfinyl)pyrimidin-4-yl)-1-(3,4-dimethoxybenzyl)pyridin-2 (1H)-one]
– | > 5.00 | COc1ccc(Cn2cc(-c3cc(CF)nc([S+](C)[O-])n3)ccc2=O)cc1OC (centres unmarked) [Compound 203, 1-(3,4-dimethoxybenzyl)-5-(6-(fluoromethyl)-2-(methylsulfinyl)pyrimidin-4-yl)pyridin-2 (1H)-one]
– | > 5.00 | COc1ccc(Cn2cc(-c3cc(-c4ccc[nH]4)nc(S(C)(=O)=O)n3)ccc2=O)cc1OC [Compound 204]
– | > 5.00 | COc1ccc(Cn2cc(-c3cc(-c4ccc[nH]4)nc([S+](C)[O-])n3)ccc2=O)cc1OC (centres unmarked) [Compound 205]
– | > 5.00 | COc1ccc(Cn2cc(-c3cc(-c4ccco4)nc(S(C)(=O)=O)n3)ccc2=O)cc1OC [Compound 206]
– | > 5.00 | COc1ccc(Cn2cc(-c3cc(-c4ccco4)nc([S+](C)[O-])n3)ccc2=O)cc1OC (centres unmarked) [Compound 207]
– | > 5.00 | COc1ccc(Cn2cc(-c3cc(C4=CCC=C4)nc(S(C)(=O)=O)n3)ccc2=O)cc1OC [Compound 208]
– | > 5.00 | COc1ccc(Cn2cc(-c3cc(C4=CCC=C4)nc([S+](C)[O-])n3)ccc2=O)cc1OC (centres unmarked) [Compound 209]
– | > 5.00 | COc1ccc(Cn2cc(-c3cc(-c4ncco4)nc([S+](C)[O-])n3)ccc2=O)cc1OC (centres unmarked) [Compound 210]
– | > 5.00 | COc1ccc(Cn2cc(-c3cc(-c4ncco4)nc(S(C)(=O)=O)n3)ccc2=O)cc1OC [Compound 211]
– | > 5.00 | COc1ccc(Cn2cc(-c3cc(-c4cnco4)nc(S(C)(=O)=O)n3)ccc2=O)cc1OC [Compound 212]
– | > 5.00 | COc1ccc(Cn2cc(-c3cc(-c4nccs4)nc([S+](C)[O-])n3)ccc2=O)cc1OC (centres unmarked) [Compound 213]
